According to patent publication US9708289B2, “Imidazole diketone compound and use thereof” (HINOVA PHARMACEUTICALS INC., priority 2013, dated 2017):

How the values were obtained:
[1] = Evaluation of pharmacokinetics in mice; assay type: in vivo, Kunming mice (KM mice); conditions: 10 mg/kg intragastric; for Tmax: Kunming (KM), mouse, po; for Tmax / Cmax: male KM mice, plasma; for Cmax compared with undeuterated compound 10: mice
Experimental: 10 mg/kg compound 10, 14, 17, 20 were intragastrically administered to Healthy Kunming mice (KM mice), male, weighing 18-20 g. Compounds were dissolved in DMSO:PEG400:H2O 1:5:14. The volume of administration was 10 mL/kg. Before testing, the mice fasted for 12 h and drunk water ad libitum. Then, the mice were fed together at 2 h after administration. 0.3 mL of blood were took from 3 mice through retrobulbar venous plexus at 0.5, 1.0, 2.0, 4.0, 6.0 and 24 h after administration, placed in heparinized tubes, and centrifuged for 5 min at 11000 rpm. The plasma was separated and frozen in a refrigerator at −20° C. 100 uL of serum was transferred with a pipettor into a clean plastic centrifuge tube marked with compound's name and time point, and diluted with acetonitrile (CH3CN) and centrifuged. The concentration of drug was analyzed by LC-MS. Serum was stored at −80° C. before analysis. The pharmacokinetic parameters of deuterated compound (compound 14, 17, and 20) and undeuterated compound (compound 10) were show in following table.

[2] = Evaluation of pharmacokinetics in rats; assay type: in vivo, SD rats; conditions: 10 mg/kg intragastric; for AUCINF_obs / Cmax / Tmax / AUC(0-t) / MRT / half-life: male SD rats, mean, n = 4
Experimental: 10 mg/kg compound 10, and 14 were intragastrically administered to SD rats male, weighing […]. Compounds were dissolved in DMSO:PEG400:H2O 1:5:14. The volume of administration was 10 mL/kg. Conventional methods were used for the results evaluation.

[3] = test system: human prostate cancer LNCaP; assay: Inhibition of the growth of prostate cancer cells (MTT, R1881-stimulated); assay type: cell-based; conditions: for IC50: Homo sapiens, R1881 added, 96 hours, MTT, read-out: IC50, inhibition activity on LNCap/AR cell
Experimental: The ability of compounds to inhibit the growth of prostate cancer cells was tested:
First, the human prostate cancer LNCaP (purchased from ATCC, USA) was transferred to a RPM11640 culture medium containing 10% charcoal-stripped fetal bovine serum (FBS). After cultured for three days, the cells were digested with 0.25% trypsin and counted through trypan blue staining. The cells were plated, with 100 μL cell suspension containing 4000 cells per well. 200 μL medium was added to the wells around the cell plate for avoiding edge effects.
The next day, 6 drug concentrations was prepared (48.6 μM, 19.44 μM, 7.776 μM, 3.11 μM, 1.24 μM, 0.5 μM) before administration, and 100 μL of corresponding compound at corresponding concentration was added into each well of a cell plate. The cell plate was placed in a cell incubator for 30 min, 10 μL of 4 nM R1881 was added into each well and homogeneously mixed. Upon the addition of R1881, the cell plate was placed in a cell incubator and incubated at 37° C., under 5% CO2 for 96 hours. Afterwards, 40 μL of MTT (prepared in PBS, concentration is 2.5 mg/mL) was added into each wells, and incubated at 37° C. for 2 hours. The supernatant was sucked off, and 100 μL of DMSO was added into each well. The plate was shaken by a vibrator for 10 min for dissolving formazan. The plate was read at 570 nm wavelength using a microplate reader in the unit of OD. The inhibition rate of test compounds was calculated with the following equation: IR (%)=(ODcontrol−ODsample)/(ODcontrol−ODblank)×100%
The inhibition rate curve of test compounds was plotted using the software XLFit (Formula 205), which can calculate the 50% inhibition rate, i.e. IC50.

| SMILES | Tmax [1] [h] | Cmax [1] [ng/mL] | Cmax compared with undeuterated compound 10 [1] | AUCINF_obs [2] [ng·h/mL] | Cmax [2] [ng/mL] | Tmax [2] [h] | AUC(0-t) ([2]; rat, in vivo, po) [ng·h/mL] | MRT ([2]; rat, in vivo, po) [h] | half-life ([2]; rat, in vivo, po) [h] | IC50 [3] [nM] | Cmax ([2]; rat, in vivo, po, read-out: Cmax) [ng/mL] | AUC relative to compound 10 ([2]; rats) | Cmax relative to compound 10 ([2]; rats) | half-life compared with compound 10 ([2]; rats) | inhibition on the growth of prostate cancer cell compared with compound 10 [3] |
| --- | --- | --- | --- | --- | --- | --- | --- | --- | --- | --- | --- | --- | --- | --- | --- |
| [2H]c1cc(C(=O)NC([2H])([2H])[2H])c(F)c([2H])c1N1C(=S)N(c2cnc(C#N)c(C(F)(F)F)c2)C(=O)C12CCC2 [Compound 20, 4-[7-(6-cyano-5-trifluoromethyl-3-pyridyl)-8-oxo-6-thio-5,7-diazaspiro[3,4]-5-octyl]-3,5-bideuterium-2-fluoro-N-trideuteromethyl-benzamide] | 4 | 3940 | significantly increased |  |  |  |  |  |  |  |  |  |  |  |  |
| CNC(=O)c1ccc(N2C(=S)N(c3cnc(C#N)c(C(F)(F)F)c3)C(=O)C23CCC3)cc1F [Compound 10, 4-[7-(6-cyano-5-trifluoromethyl-3-pyridyl)-8-oxo-6-thio-5,7-diazaspiro [3, 4]-5-octyl]-2-fluoro-N-methyl-benzamide, reference compound] | 6 | 3320 |  | 14752 | 946.0 | 3.500 | 13100 | 10.7 | 7.38 | 637 |  |  |  |  |  |
| [2H]C([2H])([2H])NC(=O)c1ccc(N2C(=S)N(c3cnc(C#N)c(C(F)(F)F)c3)C(=O)C23CCC3)cc1F [Compound 14, 4-[7-(6-cyano-5-trifluoromethyl-3-pyridyl)-8-oxo-6-thio-5,7-diazaspiro [3, 4]-5-octyl]-2-fluoro-N-trideuterated methyl-benzamide] | 4 | 4480 | significantly increased | 28729 |  | 3.500 | 24100 | 13 | 8.93 | 280 | 1700 | about 2 fold | about 2 fold | longer half-life | better inhibition |
| [2H]c1cc(C(=O)NC)c(F)c([2H])c1N1C(=S)N(c2cnc(C#N)c(C(F)(F)F)c2)C(=O)C12CCC2 [Compound 17, 4-[7-(6-cyano-5-trifluoromethyl-3-pyridyl)-8-oxo-6-thio-5,7-diazaspiro [3,4]-5-octyl]-3,5-bideuterium-2-fluoro-N-methyl-benzamide] | 6 | 3480 |  |  |  |  |  |  |  |  |  |  |  |  |  |
